The values that follow come from patent publication US7700109B2, “Biomolecule transduction motif Mph-1-BTM and the use thereof” (ForHumanTech. Co., Ltd., priority 2002, dated 2010).

Test [1] deals with HUVEC, HeLa, 293 and Jurkat cells. The experiment in a line: Transduction of fusion protein across cell membrane, β-galactosidase staining on slides. Format: cell-based. The settings on record: 0.5 μM, 30 min at 37° C., HeLa, 293, Jurkat cells. On the procedure: HUVEC (ATCC:CRL-1730) (2×10^5), HeLa (ATCC:CCL-2) (2×10^5), and 293 (ATCC:CRL-1573) (2×10^5), which were incubated in 10% FBS (Fetal Bovine Serum) of DMEM, were respectively transferred to Lab-tek II chamber slides. Jurkat cells (ATCC:CRL-10915) (2×10^5) incubated in 10% EBS RPMI were transferred to poly-L-lysin coated slides. Each of the slides was treated with the purified 0.5 μM of Mph-1-β-galactosidase for 30 min at 37° C. in 5% CO2 incubator. And the supernatants were removed from the slides. The incubation mixtures were washed using ice-cold PBS four times and then were solidified with 2% formaldehyde solution for 10 min. After removing the solidified solutions, the mixtures were washed again using ice-cold PBS four times. Subsequently, the respective mixtures were treated with 700 μl of β-galactosidase staining solution (Roche. Colo.) for 45 min at 37° C. in 5% CO2 incubator. Following the staining, the mixtures were washed with ice-cold PBS four times after removing the supernatants. Next, the mixtures were mounted with 70% glycerol on the microscope slides.

In test [2] the test system is Jurkat T cells. The experiment in a line: Screening of candidate PTD-β-galactosidase fusion proteins for transduction. The test is classed as cell-based. The settings on record: fusion with β-galactosidase. An excerpt:
Based on these two hypotheses and requisites, we searched the gene bank. With the factor that the conventional PTDs have lysines and arginines abundantly, we selected about 10,000 primary candidate genes. Among them, 500 genes were chosen by applying the requisites of signal peptide, and 100 genes of the 500 genes were confirmed as to have alanine and valine. Finally, 20 genes were selected by applying the factors required for the transcription factors, and then the transduction efficiencies were tested therefor. In addition, fusion proteins of each of these candidate PTDs and β-galactosidase were expressed and purified, and the functions of these proteins were detected using Jurkat T cells.

Regarding “β-gal: β-galactosidase reporter protein alone, without transduction peptide”, the “transduction across the cell membranes (β-galactosidase staining)” value in test [1] is given as “not transduced at all”.

Take “Mph-1-BTM: amino acid sequence 858 to 868 of Mph-1, a mouse transcription factor (SEQ ID NO:1) (YARVRRRGPRR; Biomolecule transduction motif)”: in test [2], the transduction ability result is “unexpectedly significant transduction ability”.
